Tests used:
Experiment in all cases: relative viability (nuclei count vs DMSO), 5 days (fraction); higher = more cells survive
Pazopanib + Phenformin = compound: Cc1ccc(Nc2nccc(N(C)c3ccc4c(C)n(C)nc4c3)n2)cc1S(N)(=O)=O [Pazopanib] + N=C(N)NC(=N)NCCc1ccccc1 [Phenformin] (partner 250 µM)
How it was run: (§1)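 Each reported value is a median over duplicate plates. It expresses relative viability: treated-well nuclei count divided by vehicle-well nuclei count. Lung cancer cell lines in 1536-well plates were dosed by pin tool a day after seeding, alone with one drug or with a fixed anchor-drug dose plus five library-drug doses (not always all listed) in √10 steps, and nuclei were counted after 5 days.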

Ponatinib + Pictilisib = compound: Cc1ccc(C(=O)Nc2ccc(CN3CCN(C)CC3)c(C(F)(F)F)c2)cc1C#Cc1cnc2cccnn12 [Ponatinib] + CS(=O)(=O)N1CCN(Cc2cc3nc(-c4cccc5[nH]ncc45)nc(N4CCOCC4)c3s2)CC1 [Pictilisib] (partner 1 µM)
How it was run: as §1

Ponatinib + Trametinib = compound: Cc1ccc(C(=O)Nc2ccc(CN3CCN(C)CC3)c(C(F)(F)F)c2)cc1C#Cc1cnc2cccnn12 [Ponatinib] + CC(=O)Nc1cccc(-n2c(=O)n(C3CC3)c(=O)c3c(Nc4ccc(I)cc4F)n(C)c(=O)c(C)c32)c1 [Trametinib] (partner 0.02 µM)
How it was run: as §1

Ponatinib + AZD7762 = compound: Cc1ccc(C(=O)Nc2ccc(CN3CCN(C)CC3)c(C(F)(F)F)c2)cc1C#Cc1cnc2cccnn12 [Ponatinib] + NC(=O)Nc1cc(-c2cccc(F)c2)sc1C(=O)N[C@H]1CCCNC1 [AZD7762] (partner 0.2 µM)
How it was run: as §1

Row | Cell Line | relative viability (Pazopanib + Phenformin; first compound 0.03162 µM) | relative viability (Pazopanib + Phenformin; first compound 0.1 µM) | relative viability (Pazopanib + Phenformin; first compound 0.3162 µM) | relative viability (Pazopanib + Phenformin; first compound 1 µM) | relative viability (Ponatinib + Pictilisib; first compound 0.002 µM) | relative viability (Ponatinib + Pictilisib; first compound 0.006325 µM) | relative viability (Ponatinib + Pictilisib; first compound 0.06325 µM) | relative viability (Ponatinib + Pictilisib; first compound 0.2 µM) | relative viability (Ponatinib + Trametinib; first compound 0.002 µM) | relative viability (Ponatinib + Trametinib; first compound 0.006325 µM) | relative viability (Ponatinib + Trametinib; first compound 0.06325 µM) | relative viability (Ponatinib + Trametinib; first compound 0.2 µM) | relative viability (Ponatinib + AZD7762; first compound 0.002 µM) | relative viability (Ponatinib + AZD7762; first compound 0.006325 µM) | relative viability (Ponatinib + AZD7762; first compound 0.06325 µM) | relative viability (Ponatinib + AZD7762; first compound 0.2 µM) | relative viability (Pazopanib + Phenformin; first compound 0.01 µM)
1 | LK-2 | 0.449 | 0.639 | 0.594 | 0.301 | 0.589 | 0.555 | 0.411 | 0.446 | 0.787 | 0.666 | 0.746 | 0.587 | 0.405 | 0.431 | 0.146 | 0.231 | –
2 | HCC-366 | 0.642 | 0.547 | 0.608 | 0.638 | 0.149 | 0.101 | 0.146 | 0.275 | 0.32 | 0.417 | 0.428 | 0.273 | 0.247 | 0.271 | 0.146 | 0.119 | 0.566
3 | BEN | 0.281 | 0.288 | 0.266 | 0.238 | 0.544 | 0.62 | 0.601 | 0.462 | 1.02 | 0.967 | 0.982 | 0.768 | 0.494 | 0.625 | 0.589 | 0.774 | –
4 | NCI-H23 | 0.87 | 0.905 | 0.798 | 0.783 | 0.588 | 0.592 | 0.571 | 0.44 | 0.376 | 0.415 | 0.364 | 0.348 | 0.266 | 0.244 | 0.237 | 0.14 | 0.565
5 | NCI-H1793 | 0.419 | 0.394 | 0.425 | 0.421 | 0.335 | 0.344 | 0.206 | 0.356 | 0.395 | 0.511 | 0.344 | 0.347 | 0.406 | 0.466 | 0.282 | 0.178 | –
6 | 201T | 0.425 | 0.438 | 0.455 | 0.462 | 0.649 | 0.685 | 0.801 | 0.725 | 0.705 | 0.733 | 0.762 | 0.693 | 0.557 | 0.546 | 0.38 | 0.371 | 0.444

— the supplement of paper PMC10307832
